Measured values taken from patent US20220002429A1, “TUMOR CELL AGGREGATION INHIBITORS' FOR TREATING CANCER” (Northwestern University, priority 2018, published 2022).
Residues, ends and D or L forms follow the SMILES beside them. *: point of attachment. Cbz = O=C(OCc1ccccc1)*

Legend:
[1] = system: MDA-MB-231 cells; experiment: MDA-MB-231 cell aggregation in suspension on Poly-HEMA-coated plates; format: cell-based, human; settings: 4-MU 0.4 mM/L pre-treatment for 48 h; aggregation at 1 h
Procedure: Hyaluronan inhibition. Two complementary approaches were utilized to inhibit hyaluronan, the known CD44 ligand, in the two models. First, for the TN PDX model, dissociated cells were treated with hyaluronan antagonist (o-HA, HA oligomers) at 100 μg/mL during the 72-hour aggregation assays. For MDA-MB-231 cells, the hyaluronic acid synthase inhibitor 4-methylumbelliferone (4-MU, 0.4 mM/L) was added to the adherent culture. After 48 h of treatment, the cells were trypsinized and transferred to a poly-hydroxyethyl methacrylate (Poly-HEMA, Sigma-Aldrich) coated plate, and the images were taken at the indicated times by Leica microscopy.
Cell clustering assay. Freshly dissociated primary tumor cells in single cell suspension were seeded in collagen type I-coated 96-well plates. The plates were put into the IncuCyte live cell imaging system (Essen BioScience), and live images were taken every 2-4 h for up to one week. The cluster number and size were analyzed by Incucyte ZOOM software (Essen BioScience). In specific experiments, primary tumor cells might be sorted based on the expression of CD44 prior to seeding. In other experiments, seeded tumor cells might be transfected with siRNAs (100 nM) or treated with various inhibitors during the clustering assays. […]

[2] = system: TN1 PDX tumor cells; experiment: ex vivo aggregation (clustering) assay of dissociated PDX tumor cells, IncuCyte time-lapse imaging; format: cell-based, human
Procedure: Cell clustering assay. Freshly dissociated primary tumor cells in single cell suspension were seeded in collagen type I-coated 96-well plates. The plates were put into the IncuCyte live cell imaging system (Essen BioScience), and live images were taken every 2-4 h for up to one week. The cluster number and size were analyzed by Incucyte ZOOM software (Essen BioScience). In specific experiments, primary tumor cells might be sorted based on the expression of CD44 prior to seeding. In other experiments, seeded tumor cells might be transfected with siRNAs (100 nM) or treated with various inhibitors during the clustering assays. For cell viability analysis during clustering, the IncuCyte Cytotox Red reagent (Essen BioScience) was added to the medium according to the manufacturer's instructions.

[3] = system: MDA-MB-231 cells; experiment: orthotopic breast tumor model: primary tumor, spontaneous lung metastasis and blood CTC clusters; format: in vivo, mice
Excerpt: FIG. 21. Inhibition of EGFR blocks spontaneous metastasis. A. Timeline of treatment after palpable tumor formation in PDX model TN1. B. Bioluminescent images of tumor growth before or 1, or 17 days after treatment. C. Primary tumor signal over time, ns. D. Tumor images after 2 weeks of treatment. E. Bioluminescent images of lungs after treatment. F. Measured signal of lungs. p=0.09. G. Timeline of treatment of mice with Erlotinib or vehicle for FIGS. 19H-L. H. Bioluminescence images of orthotopically-implanted breast tumors treated with vehicle or 50 mg/kg Erlotinib (daily orally) for 4 weeks. I. BLI signal (total flux) histograms of the lungs from vehicle and Erlotinib-treated breast tumor bearing mice as shown in H. J. Bioluminescence images of dissected lungs from tumor bearing mice treated with vehicle or Erlotinib in C. K. Fluorescence images of dissected lungs from tumor bearing mice treated with vehicle or Erlotinib in C. L. Representative mix-color tumor cell clusters in blood from tumor bearing mice treated with vehicle or Erlotinib in C.
Inhibition of EGFR successfully blocks clustering and lung colonization. Using flow cytometry, we found enriched EGFR expression in clustered cells in the blood of breast cancer patients (FIG. 25). […] Furthermore, tdTomato- and eGFP-labeled MDA-MB-231 cells were implanted orthotopically together into the mammary fat pads of mice for examination of tumor cell cluster-mediated polyclonal, spontaneous lung metastasis.
Mouse models and tumor dissociation. 8-10 weeks old NOD/SCIDmice were used for PDXs and human MDA-MB-231 cell-based xenograft studies. The triple negative PDXs and MDA-MB-231 cells were lentivirally labeled by eGFP, tdTomato, Luc2-eGFP (L2G), or Luc2-tdTomato (L2T) using the lentiviruses and labeling protocol as described previously^3. PDX tumors were harvested and dissociated either with Collagenase III (TN1 model) or Liberase TH and TM research grade (TN2 model and lung tissues). Briefly, tumors were minced and incubated for 2-4 h at 37° C. with Collagenase III (Wortington Biomedical) or Liberase TH and TM (Roche) and 100 Kunitz U of DNase I (Sigma) in 20 mL of RPMI medium with 20 mM Hepes buffer. Single-cell suspensions were filtered through 40-μm nylon cell strainers and washed with Hanks' balanced saline solution (HBSS; Sigma) containing 2% heat-inactivated fetal bovine serum (FBS). Red blood cells were lysed with ACK lysis buffer, and dissociated bulk tumor cells were either cultured or stained with various antibodies in HBSS/2% FBS for further flow analysis or sorting on a BD FacsAria (BD Biosciences). […]
Bioluminescence imaging. […] Signals are presented as total photon flux and analyzed using Living Image 3.0 software (Caliper Life Sciences).

[4] = system: phospho-EGFR (Y845); experiment: immunoblot of phospho-EGFR (Y845) in siCD44-transfected MDA-MB-231 cells; format: cell-based, human; settings: siCD44 MDA-MB-231 cells in suspension, inhibitor for 6 hours
Procedure: FIG. 23. CD44 promotes EGFR stability and activity in clusters. A. Immunoblots of phospho-EGFR (Y845), EGFR and actin of TN1-PDX tumor cells in clustering assays upon CD44 knockdown for 36 hours. B. Real-time PCR showing no significant (NS) effect of siCD44 on EGFR mRNA levels. Immunoblots of phospho-EGFR (Y845) and total EGFR of MDA-MB-231 cells in suspension for 48 hours after transfected with scramble control (con), siCD44, or siEGFR. D. Immunoblots of phospho-EGFR (Y845) in MDA-MB-231 cells, transfected with siCD44, either adherent (adh) or in suspension in the presence of proteasome inhibitor (MG-132) or endocytosis inhibitor (sucrose) for 6 hours. E. Immunoprecipitation of CD44-FLAG and detection of EGFR by immunoblot.
Western blot. Cells were lysed by RIPA buffer supplemented with Amresco protease inhibitor cocktail (1:100 diluted) and centrifuged for 10 mins at 4 degrees and 10,000 RPM. Protein concentration was measured and 20 ug of protein was loaded for each sample. Antibodies used: EGFR, p-EGFR, b-actin (abcam).

[5] = Erlotinib 50 mg/kg daily orally for 4 weeks

Cc1cc(=O)oc2cc(O)ccc12 [4-MU, 4-methylumbelliferone]
aggregation of MDA-MB-231 cells in suspension [1]: did not significantly alter the aggregation

C#Cc1cccc(Nc2ncnc3cc(OCCOC)c(OCCOC)cc23)c1 [Erlotinib]
PDX-derived tumor cell cluster formation, counts and size ([2]; incubation with Erlotinib (1-10 μM), 72 hours): dramatically reduced PDX-derived tumor cell cluster formation, both the counts and size
primary tumor formation [3, 5]: no effects on primary tumor formation
spontaneous lung metastasis [3, 5]: significantly and dramatically reduced the spontaneous lung metastasis
CTC clusters in dual colors in the blood ([3]; Erlotinib vs vehicle): only detectable in the blood collected from the vehicle-treated mice
dual color metastasis colonies in the lungs ([3]; Erlotinib vs vehicle): absent but with reduced single-colored colonies

CCn1c(=O)c(-c2ccc(-c3cncs3)cc2Cl)cc2cnc(Nc3ccc(N4CCN(C)CC4)cc3)nc21 [FRAX597]
ex vivo aggregation of TN1 PDX tumor cells (cluster size and number) ([2]; FRAX597 500 nM for 72 hours): partially blocked the ex vivo aggregation

CC(C)C[C@@H](C=O)NC(=O)[C@H](CC(C)C)NC(=O)[C@H](CC(C)C)NC(=O)OCc1ccccc1 [MG-132] (Cbz-Leu-Leu-Leu-aldehyde)
p-EGFR levels reduced by CD44 knockdown [4]: rescued

OC[C@H]1O[C@@](CO)(O[C@H]2O[C@H](CO)[C@@H](O)[C@H](O)[C@H]2O)[C@@H](O)[C@@H]1O [sucrose]
p-EGFR levels reduced by CD44 knockdown [4]: rescued
